Measured values reported in US20100256104A1, “NOVEL AMIDE COMPOUNDS” (ASTRAZENECA R&D, priority 2009, published 2010).

Target: T1, recombinant human GR (Homo sapiens, UniProt P04150)
T1 construct: purchased Panvera/Invitrogen P2812 (kit P2893)
T1 sequence (P04150 1-777): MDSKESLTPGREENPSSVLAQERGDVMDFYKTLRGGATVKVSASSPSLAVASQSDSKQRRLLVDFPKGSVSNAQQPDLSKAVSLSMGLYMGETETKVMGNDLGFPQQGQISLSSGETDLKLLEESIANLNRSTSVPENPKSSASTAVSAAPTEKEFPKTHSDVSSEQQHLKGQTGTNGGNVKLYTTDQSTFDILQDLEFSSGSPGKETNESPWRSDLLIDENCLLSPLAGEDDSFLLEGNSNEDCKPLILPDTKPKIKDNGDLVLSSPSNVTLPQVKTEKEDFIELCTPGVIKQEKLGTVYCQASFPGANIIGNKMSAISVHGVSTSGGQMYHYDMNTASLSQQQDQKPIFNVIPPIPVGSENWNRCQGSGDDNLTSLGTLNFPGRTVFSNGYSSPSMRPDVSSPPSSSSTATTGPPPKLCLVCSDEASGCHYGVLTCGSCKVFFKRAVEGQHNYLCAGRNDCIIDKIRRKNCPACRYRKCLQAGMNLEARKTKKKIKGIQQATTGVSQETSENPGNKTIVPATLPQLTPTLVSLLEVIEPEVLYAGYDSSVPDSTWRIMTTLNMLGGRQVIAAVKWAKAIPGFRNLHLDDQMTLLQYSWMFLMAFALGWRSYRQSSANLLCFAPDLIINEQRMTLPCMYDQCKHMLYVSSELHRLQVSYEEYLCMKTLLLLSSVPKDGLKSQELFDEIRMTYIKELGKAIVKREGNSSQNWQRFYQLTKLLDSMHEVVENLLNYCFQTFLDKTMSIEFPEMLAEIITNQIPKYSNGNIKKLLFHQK
Test: Human Glucocorticoid Receptor (GR) Assay, fluorescence polarization competition with GS Red tracer
Conditions: 2 hours at room temperature, 100% control 10 μM Dexamethasone, XLfit model 205, read-out: Inhibition of GR binding, IC50
Protocol: Human Glucocorticoid Receptor (GR) Assay The assay is based on a commercial kit from Panvera/Invitrogen (Part number P2893). The assay technology is fluorescence polarization. The kit utilises recombinant human GR (Panvera, Part number P2812), a Fluoromone™ labelled tracer (GS Red, Panvera, Part number P2894) and a Stabilizing Peptide 10X (Panvera, Part number P2815). The GR and Stabilizing Peptide reagents are stored at −70° C. while the GS Red is stored at −20° C. Also included in the kit are 1M DTT (Panvera, Part number P2325, stored at −20° C.) and GR Screening buffer 10X (Panvera, Part number P2814, stored at −70° C. initially but once thawed stored at room temperature). Avoid repeated freeze/thaws for all reagents. The GR Screening buffer 10X comprises 100 mM potassium phosphate, 200 mM sodium molybdate, 1 mM EDTA and 20% DMSO. Test compounds (1 μL) and controls (1 μL) in 100% DMSO were added to black polystyrene 384-well plates (Greiner low volume black flat-bottom, part number 784076). 0% control was 100% DMSO and 100% control was 10 μM Dexamethasone. Background solution (8 μL; assay buffer 10X, Stabilizing Peptide, DTT and ice cold MQ water) was added to the background wells. GS Red solution (7 μL; assay buffer 10X, Stabilizing Peptide, DTT, GS Red and ice cold water) was added to all wells except background wells. GR solution (7 μL; assay buffer 10X, Stabilizing Peptide, DTT, GR and ice cold water) was added to all wells. The plate was sealed and incubated in a dark at room temperature for 2 hours. The plate was read in an Analyst plate reader (LJL Biosystems/Molecular Devices Corporation) or other similar plate reader capable of recording fluorescence polarization (excitation wavelength 530 nm, emission wavelength 590 nm and a dichroic mirror at 561 nm).

Q: Which IC50 does the source give for `COCC(=O)O[C@]1(C(=O)SCF)CC[C@H]2[C@@H]3CCC4=Cc5c(cnn5-c5cccc(C(=O)N[C@@H]6CCOC6)c5)C[C@]4(C)[C@H]3[C@@H](O)C[C@@]21C` [Example 40, (1R,3aS,3bS,10aR, 10bS,11S,12aS)-1-{[(fluoromethyl)sulfanyl]carbonyl}-11-hydroxy-10a,12a-dimethyl-7-{3-[(3R)-tetrahydrofuran-3-ylcarbamoyl]phenyl}-1,2,3,3a,3b,4,5,7,10, 10a,10b,11,12,12a-tetradecahydrocyclo-penta[5,6]naphtho [1,2-f]indazol-1-yl methoxyacetate] here?
A: 3 nM

Q: `CCC(=O)O[C@]1(C(=O)SCF)[C@H](C)C[C@H]2[C@@H]3CCC4=Cc5c(cnn5-c5cccc(C(=O)N[C@H](C)C(N)=O)c5)C[C@]4(C)[C@@]3(F)[C@@H](O)C[C@@]21C` [Example 26, (1R,2R,3aS,3bS, 10aS,10bR,11S,12aS)-7-(3-{[(1R)-2-amino-1-methyl-2-oxoethyl]carbamoyl}phenyl)-10b-fluoro-1-{[(fluoromethyl)-sulfanyl]carbonyl}-11-hydroxy-2,10a,12a-trimethyl-1,2,3,3a,3b,4,5,7,10, 10a,10b,11,12,12a-tetradecahydrocyclo-penta[5,6]naphtho [1,2-f]indazol-1-yl propanoate] was tested. Which IC50 did it give?
A: 2 nM

Q: How did the IC50 turn out when `CCC(=O)O[C@]1(C(=O)SCF)[C@H](C)C[C@H]2[C@@H]3CCC4=Cc5c(cnn5-c5cccc(C(=O)N6CCC[C@@H]6C(N)=O)c5)C[C@]4(C)[C@@]3(F)[C@@H](O)C[C@@]21C` [Example 42, (1R,2R,3aS,3bS, 10aS,10bR,11S,12aS)-7-(3-{[(2R)-2-carbamoyl-pyrrolidin-1-yl]carbonyl}phenyl)-10b-fluoro-1-{(fluoromethyl)sulfanyl] carbonyl}-11-hydroxy-2,10a,12a-trimethyl-1,2,3,3a,3b,4,5,7,10, 10a,10b,11,12,12a-tetradecahydrocyclo-penta[5,6]naphtho [1,2-f]indazol-1-yl propanoate] was run?
A: 4.4 nM

Q: Which IC50 does the source give for `CCC(=O)O[C@]1(C(=O)SCF)CC[C@H]2[C@@H]3C[C@H](C)C4=Cc5c(cnn5-c5cccc(C(=O)N[C@@H](C)C(N)=O)c5)C[C@]4(C)[C@H]3[C@@H](O)C[C@@]21C` [Example 23, (1R,3aS,3bS,5S, 10aR,10bS,11S,12aS)-7-(3-{[(1S)-2-amino-1-methyl-2-oxoethyl]carbamoyl}phenyl)-1-{[(fluoromethyl)sulfanyl]carbonyl}-11-hydroxy-5,10a,12a-trimethyl-1,2,3,3a,3b,4,5,7,10, 10a,10b,11,12,12a-tetradecahydrocyclo-penta[5,6]naphtho [1,2-f]indazol-1-yl propanoate] here?
A: 4 nM

Q: Which IC50 does the source give for `C[C@H]1C[C@@H]2[C@H]([C@@H](O)C[C@@]3(C)[C@H]2CC[C@]3(OC(=O)[C@H]2CCCO2)C(=O)SCF)[C@@]2(C)Cc3cnn(-c4cccc(C(=O)NCC(N)=O)c4)c3C=C12` [Example 30, (1R,3aS,3bS,5S, 10aR,10bS,11S,12aS)-7-{3-[(2-amino-2-oxoethyl)carbamoyl]phenyl}-1-{[(fluoromethyl)sulfanyl]carbonyl}-11-hydroxy-5,10a,12a-trimethyl-1,2,3,3a,3b,4,5,7,10, 10a,10b,11,12,12a-tetradecahydrocyclo-penta[5,6]naphtho [1,2-f]indazol-1-yl (2R)-tetrahydrofuran-2-carboxylate] here?
A: 2.2 nM

Q: `CCC(=O)O[C@]1(C(=O)SCCO)CC[C@H]2[C@@H]3CCC4=Cc5c(cnn5-c5cccc(C(=O)N6CCC[C@@H]6C(N)=O)c5)C[C@]4(C)[C@@]3(F)[C@@H](O)C[C@@]21C` [Example 58, (1R,3aS,3bS,10aS, 10bR,11S,12aS)-7-(3-{[(2R)-2-carbamoyl-pyrrolidin-1-yl]carbonyl}phenyl)-10b-fluoro-11-hydroxy-1-{[(2-hydroxyethyl)sulfanyl]carbonyl}-10a,12a-dimethyl-1,2,3,3a,3b,4,5,7,10, 10a,10b,11,12,12a-tetradecahydrocyclo-penta[5,6]naphtho [1,2-f]indazol-1-yl propanoate] was tested. Which IC50 did it give?
A: 6.9 nM

Q: How did the IC50 turn out when `CSC(=O)[C@@]1(OC(=O)C2CC2)CC[C@H]2[C@@H]3CCC4=Cc5c(cnn5-c5cccc(C(=O)N6CCC[C@@H]6C(N)=O)c5)C[C@]4(C)[C@@]3(F)[C@@H](O)C[C@@]21C` [Example 53, (1R,3aS,3bS,10aS,10bR,11S,12aS)-7-(3-{[(2R)-2-carbamoylpyrrolidin-1-yl]carbonyl}phenyl)-10b-fluoro-11-hydroxy-10a,12a-dimethyl-1-[(methylsulfanyl)carbonyl]-1,2,3,3a,3b,4,5,7,10,10a,10b,11,12,12a-tetradecahydrocyclopenta[5,6]naphtho[1,2-f]indazol-1-yl cyclopropanecarboxylate] was run?
A: 2.5 nM

Q: For `CCC(=O)O[C@]1(C(=O)SCCO)CC[C@H]2[C@@H]3CCC4=Cc5c(cnn5-c5cccc(C(=O)N6CCC[C@@H]6C(N)=O)c5)C[C@]4(C)[C@H]3[C@@H](O)C[C@@]21C` [Example 48, (1R,3aS,3bS,10aR, 10bS,11S,12aS)-7-(3-{[(2R)-2-carbamoyl-pyrrolidin-1-yl]carbonyl}phenyl)-11-hydroxy-1-{[(2-hydroxyethyl)sulfanyl]carbonyl}-10a,12a-dimethyl-1,2,3,3a,3b,4,5,7,10, 10a,10b,11,12,12a-tetradecahydrocyclo-penta[5,6]naphtho [1,2-f]indazol-1-yl propanoate], which IC50 is on record?
A: 6.3 nM

Q: For `C[C@]12Cc3cnn(-c4cccc(C(=O)N5CCC[C@@H]5C(N)=O)c4)c3C=C1CC[C@@H]1[C@@H]2[C@@H](O)C[C@@]2(C)[C@H]1CC[C@]2(OC(=O)c1cocn1)C(=O)SCF` [Example 50, (1R,3aS,3bS,10aR, 10bS,11S,12aS)-7-(3-{[(2R)-2-carbamoyl-pyrrolidin-1-yl]carbonyl}phenyl)-1-{[(fluoromethyl)sulfanyl]carbonyl}-11-hydroxy-10a,12a-dimethyl-1,2,3,3a,3b,4,5,7,10, 10a,10b,11,12,12a-tetradecahydrocyclo-penta[5,6]naphtho [1,2-f]indazol-1-yl 1,3-oxazole-4-carboxylate], which IC50 is on record?
A: 8.2 nM

Q: How did the IC50 turn out when `CCC(=O)O[C@]1(C(=O)SCF)CC[C@H]2[C@@H]3CCC4=Cc5c(cnn5-c5cccc(C(=O)N(C)CC(N)=O)c5)C[C@]4(C)[C@@]3(F)[C@@H](O)C[C@@]21C` [Example 34, (1R,3aS,3bS,10aS, 10bR,11S,12aS)-7-{3-[(2-amino-2-oxoethyl)(methyl)carbamoyl]phenyl}-10b-fluoro-1-{[(fluoromethyl)sulfanyl]carbonyl}-11-hydroxy-10a,12a-dimethyl-1,2,3,3a,3b,4,5,7,10, 10a,10b,11,12,12a-tetradecahydrocyclo-penta[5,6]naphtho [1,2-f]indazol-1-yl propanoate] was run?
A: 3.8 nM

Q: How did the IC50 turn out when `COCC(=O)O[C@]1(C(=O)SCF)CC[C@H]2[C@@H]3CCC4=Cc5c(cnn5-c5cccc(C(=O)NCCSC)c5)C[C@]4(C)[C@H]3[C@@H](O)C[C@@]21C` [Example 8, (1R,3aS,3bS,10aR,10bS,11S,12aS)-1-{[(Fluoromethyl)sulfanyl]carbonyl}-11-hydroxy-10a,12a-dimethyl-7-(3-{[2-(methylsulfanyl)ethyl]carbamoyl}phenyl)-1,2,3,3a,3b,4,5,7,10,10a,10b,11,12,12a-tetradecahydrocyclopenta[5,6]naphtho[1,2-f]indazol-1-yl methoxyacetate] was run?
A: 1.8 nM
